Values after ≈ are worked out from the molar mass of the structure shown.
The molecules below were run on A2780 (assay: Cytotoxicity against human A2780 cells).
Format: functional, cell-based
`Oc1cc(O)cc(CCCCC/C=C\CCCCCCCc2cc(O)cc(O)c2)c1` was tested, and the IC50 was 9.8 µg/mL (≈ 23.8 µM).
`COc1cc(O)cc(CCCCCCC/C=C\CCCCCCCc2cc(O)cc(O)c2)c1` [ONCOSTEMONOL D] showed an IC50 of 10 µg/mL (≈ 22 µM).
Molecule `CC(=O)Oc1cc(O)cc(CCCCCCCCCCCCCCCCc2cc(O)cc(OC(C)=O)c2)c1` [ONCOSTEMONOL F] has an IC50 of 9.5 µg/mL (≈ 18 µM).
`Oc1cc(O)cc(CCCCCCC/C=C\CCCCCCCCCc2cc(O)cc(O)c2)c1` [ONCOSTEMONOL H] gave an IC50 of 9.4 µg/mL (≈ 20.1 µM).
Work on `Oc1cc(O)cc(CCCCCCC/C=C\CCCCCCCc2cc(O)cc(O)c2)c1` yielded an IC50 of 10.2 µg/mL (≈ 23.1 µM).
For `CC(=O)Oc1cc(O)cc(CCCCCCC/C=C\CCCCCCCc2cc(O)cc(OC(C)=O)c2)c1` [ONCOSTEMONOL A], the IC50 was 9.4 µg/mL (≈ 17.9 µM).
For `COc1cc(O)cc(CCCCCCC/C=C\CCCCCCCc2cc(OC)cc(OC)c2)c1` [ONCOSTEMONOL E], the IC50 was 9.8 µg/mL (≈ 20.3 µM).
`COc1cc(O)cc(CCCCCCC/C=C\CCCCCCCc2cc(O)cc(OC)c2)c1` [ONCOSTEMONOL C] was tested, and the IC50 was 9.8 µg/mL (≈ 20.9 µM).
With `Oc1cc(O)cc(CCCCCCCCC/C=C\CCCCCCCCCc2cc(O)cc(O)c2)c1` [ONCOSTEMONOL G] the IC50 was 10.2 µg/mL (≈ 20.5 µM).
`CC(=O)Oc1cc(O)cc(CCCCCCC/C=C\CCCCCCCc2cc(O)cc(O)c2)c1` [ONCOSTEMONOL B] gave an IC50 of 10.2 µg/mL (≈ 21.1 µM).

Reference: ChEMBL document CHEMBL1150131, “New cytotoxic bis 5-alkylresorcinol derivatives from the leaves of Oncostemon bojerianum from the Madagascar rainforest” (J Nat Prod, 2002)
